Experimental data reported in patent US5674905A, “Bicyclooctane and bicycloheptane derivatives” (James Black Foundation Limited, priority 1992, dated 1997).

Key:
CCKB receptor = biological target: T1, CCKB receptor (Mus musculus, UniProt P56481); experiment: radioligand binding assay at the CCKB receptor in mouse cortical membranes ([125I]-CCK8S); settings: 150 min at 21±3°; for Ki: read-out: CCKB pKi (converted)
T1 construct: The cortex was dissected, weighed and homogenised in 40 ml ice-cold buffer; from tissue; host or cells: cerebral cortex membranes of male CD1 mice (Charles River)
T1 sequence (P56481 1-453): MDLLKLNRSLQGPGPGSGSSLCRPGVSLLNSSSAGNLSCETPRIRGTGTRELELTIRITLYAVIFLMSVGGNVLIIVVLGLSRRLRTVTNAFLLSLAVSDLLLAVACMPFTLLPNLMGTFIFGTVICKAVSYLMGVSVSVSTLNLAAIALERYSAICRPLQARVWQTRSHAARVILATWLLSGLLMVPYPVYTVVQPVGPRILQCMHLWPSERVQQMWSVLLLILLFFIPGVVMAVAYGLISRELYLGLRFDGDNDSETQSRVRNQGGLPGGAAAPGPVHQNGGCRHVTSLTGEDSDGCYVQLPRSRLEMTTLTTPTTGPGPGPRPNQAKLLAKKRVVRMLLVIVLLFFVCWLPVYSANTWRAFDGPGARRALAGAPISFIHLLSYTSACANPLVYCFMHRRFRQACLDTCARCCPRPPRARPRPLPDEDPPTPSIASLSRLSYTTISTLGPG
Protocol: The compounds of the examples were tested for binding at the CCKB receptor in mouse cortical membranes by means of a radioligand binding assay. The procedure was as follows:
The whole brains from male mice (CD1 22-25 g; Charles River) were removed and placed in ice-cold buffer (pH7.2 @ 21±3 °) of the following composition (mM); 10 HEPES, 130 NaCl, 4.7 KCl, 5 MgCl2, 1 EDTA and containing 0.25 g.1^-1 bacitracin. The cortex was dissected, weighed and homogenised in 40 ml ice-cold buffer using a Teflon-in-glass homogeniser. The homogenate was centrifuged at 39,800 g for 20 min at @ 4°, the supernatant discarded and the pellet resuspended by homogenisation in fresh buffer. The homogenate was recentrifuged (39,800 g; 20 min @4°) and the final pellet was resuspended in HEPES buffer to give a tissue concentration of 2 mg.ml^-1 (original wet weight).
The membranes ([…]) were incubated for 150 min at 21±3° in a final volume of 0.5 ml with HEPES buffer containing [^125 I]-CCK8S (0.05 ml; 200 pM NEN 2200 Ci.mmol^-1) and competing compound. Total and non-specific binding of [^125 I]-CCK8S were defined using 0.05 ml of buffer and 0.05 ml of […] L-365,260, respectively. The assay was terminated by rapid filtration through pre-soaked Whatman GF/B filters using a Brandell Cell harvester. The filters were washed (3×3 ml) with ice-cold 50 mM Tris-HC1 (pH7.4 @ 4° C.) and bound radioactivity determined by counting (1 min.) in a gamma-counter.

gastrin receptors = biological target: T2, gastrin receptors (Rattus norvegicus, UniProt P30553); experiment: gastrin antagonist activity in an immature rat stomach assay (pentagastrin-stimulated acid secretion); settings: isolated immature rat stomach, cumulative pentagastrin dose-response curves; for Kb: read-out: Gastrin pKB (converted); for Gastrin pKB: 60 min
T2 construct: from tissue; host or cells: isolated perfused whole stomach of immature rats (33-50 g, ca. 21 days old)
T2 sequence (P30553 1-452): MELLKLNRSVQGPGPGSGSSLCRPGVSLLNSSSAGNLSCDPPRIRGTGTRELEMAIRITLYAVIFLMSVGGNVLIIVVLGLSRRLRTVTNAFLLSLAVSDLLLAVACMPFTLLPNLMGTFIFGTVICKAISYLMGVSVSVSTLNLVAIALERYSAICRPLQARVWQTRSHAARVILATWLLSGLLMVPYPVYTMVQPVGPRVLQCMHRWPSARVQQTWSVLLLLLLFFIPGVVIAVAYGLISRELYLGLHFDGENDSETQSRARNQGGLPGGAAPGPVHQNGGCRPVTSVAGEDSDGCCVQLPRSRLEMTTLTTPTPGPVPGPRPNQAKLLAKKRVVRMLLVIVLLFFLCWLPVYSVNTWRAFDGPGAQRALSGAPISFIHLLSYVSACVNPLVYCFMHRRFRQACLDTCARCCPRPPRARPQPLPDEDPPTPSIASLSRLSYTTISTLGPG
Protocol: The compounds of the examples were also tested for gastrin antagonist activity in an immature rat stomach assay. The procedure was as follows:
The oesophagus of immature rats (33-50 g, ca. 21 days old) was ligated at the level of the cardiac sphincter and the duodenal sphincter was cannulated. The stomach was excised and flushed with ca. 1 ml of unbuffered physiological saline solution. The fundus was punctured and cannulated. A further 4-5 ml of unbuffered solution was flushed through the stomach to ensure the preparation was not leaking. The stomach was lowered into a jacketed organ bath containing 40 ml of buffered solution containing 3×10^-8 M 5-methyl-furmethide, maintained at 37° and gassed vigorously with 95% O2 /5% CO2. The stomach was continuously perfused at a rate of 1 ml min^-1 with unbuffered solution gassed with 100% O2 with the perfusate passing over an internally referenced pH-electrode fixed 12 cm above the stomach.
After 120 min of stabilisation the drugs were added directly to the serosal solution in the organ bath and after a further 60 min cumulative pentagastrin dose-response curves were started. Changes in acid secretion were monitored and the curves analysed according to Black et. al., Br. J. Pharmacol., 1985, 86, 581.

SMILES: O=C1CC2c3ccccc3C1C(C(=O)O)C2C(=O)NCC12CC3CC(CC(C3)C1)C2 (mixture of isomers) [Example 13, endo-(±)-cis-8-(1-adamantylmethylaminocarbonyl)-2-oxo-5,6-benzobicyclo[2.2.2]octane-7-carboxylic acid]
- Ki (CCKB receptor): 2510 nM
- Kb (gastrin receptors): 3160 nM

SMILES: COC(=O)[C@H](C)NC(=O)C1C2CCC(CC2)C1C(=O)NCC12CC3CC(CC(C3)C1)C2 (mixture of isomers) [Example 25, cis-(±)-2-(1-S-Methoxycarbonyl-ethylaminocarbonyl)-3-(1-adamantylmethylaminocarbonyl)-bicyclo[2.2.2]octane]
- Ki (CCKB receptor): 7940 nM
- Kb (gastrin receptors): 1000 nM

SMILES: COC(=O)C12CC(c3ccccc31)C(C(=O)NCC13CC4CC(CC(C4)C1)C3)C2C(=O)O (mixture of isomers) [Example 54, 1-methoxycarbonyl-endo-cis-(±)-7-(1-adamantylmethylaminocarbonyl)-2,3-benzobicyclo-[2.2.1] hept-6-carboxylic acid]
- CCKB pKi (CCKB receptor): 5.3
- Gastrin pKB (gastrin receptors): 6.1

SMILES: COC(=O)C12CC(c3ccccc31)C(C(=O)NCC13CC4CC(CC(C4)C1)C3)C2C(=O)N[C@@H](Cc1ccccc1)C(=O)Nc1cc(C(=O)O)cc(C(=O)O)c1 (mixture of isomers) [Example 55, (±)-1-methoxycarbonyl-endo-cis-6-(1S-(3,5-dicarboxyphenylaminocarbonyl)-2-phenylethylamino-carbonyl)-7-(1-adamantylmethylaminocarbonyl)-2,3-benzo-bicyclo[2.2.1]heptane]
- CCKB pKi (CCKB receptor): 7.6
- Gastrin pKB (gastrin receptors): 6.9

SMILES: COC(=O)C12CC(c3ccccc31)C(C(=O)NCC13CC4CC(CC(C4)C1)C3)C2C(=O)N1CCC[C@@H]1C(=O)O (mixture of isomers) [Example 56, (±)-1-methoxycarbonyl-endo-cis-6-(2R-carboxypyrrolidinocarbonyl)-7-(1-adamantylmethylaminocarbonyl)-2,3-benzobicyclo[2.2.1]heptane]
- CCKB pKi (CCKB receptor): 5.1
- Gastrin pKB (gastrin receptors): 5.6

SMILES: O=C(O)C1C2C=CC(C2=C(c2ccccc2)c2ccccc2)C1C(=O)NCC12CC3CC(CC(C3)C1)C2 (racemic) [Example 39, (±)-endo and exo-cis-7-(1-adamantylmethylaminocarbonyl)-2-diphenylmethylene bicyclo-[2.2.1]hept-4-ene-6-carboxylic acid]
- Ki (CCKB receptor): 2000 nM
- Kb (gastrin receptors): 2510 nM

SMILES: O=C(O)[C@@H]1[C@H](C(=O)NCC23CC4CC(CC(C4)C2)C3)[C@H]2C=C[C@@H]1c1ccccc12 (relative stereo) [Example 2, endo-(±)-cis-8-(1-adamantylmethylaminocarbonyl)-5,6-benzobicyclo[2.2.2]oct-2-ene-7-carboxylic acid]
- Ki (CCKB receptor): 2510 nM
- Kb (gastrin receptors): 1260 nM

SMILES: CC1=C(C)[C@H]2c3ccccc3[C@@H]1[C@@H](C(=O)O)[C@H]2C(=O)NCC12CC3CC(CC(C3)C1)C2 (relative stereo) [Example 11, exo-(±)-cis-8-(1-adamantylmethylaminocarbonyl)-2,3-dimethyl-5,6-benzobicyclo[2.2.2]oct-2-ene-7-carboxylic acid]
- Ki (CCKB receptor): 1580 nM
- Kb (gastrin receptors): 6310 nM

SMILES: CC1=C(C)[C@H]2c3ccccc3[C@@H]1[C@H](C(=O)O)[C@@H]2C(=O)NCC12CC3CC(CC(C3)C1)C2 (relative stereo) [Example 12, endo-(±)-cis-8-(1-adamantylmethylaminocarbonyl)-2,3-dimethyl-5,6-benzobicyclo[2.2.2]oct-2-ene-7-carboxylic acid]
- Ki (CCKB receptor): 794 nM
- Kb (gastrin receptors): 5010 nM

SMILES: O=C(NCC12CC3CC(CC(C3)C1)C2)C1C2C=CC(c3ccccc32)C1C(=O)N[C@H](Cc1c[nH]c2ccccc12)C(=O)O (single isomer, unassigned) [Example 15, endo-cis-7-(2-R-(3-indolyl)-1-carboxy-ethylaminocarbonyl)-8-(1-adamantylmethylaminocarbonyl)-5,6-benzobicyclo[2.2.2]oct-2-ene]
- Ki (CCKB receptor): 1580 nM
- Kb (gastrin receptors): 3160 nM

SMILES: O=C(NCC12CC3CC(CC(C3)C1)C2)C1C2C=CC(c3ccccc32)C1C(=O)N[C@H](Cc1c[nH]c2ccccc12)C(=O)O (single isomer, unassigned) [Example 16, endo-cis-7-(2-R-(3-indolyl)-1-carboxy-ethylaminocarbonyl)-8-(1-adamantylmethylaminocarbonyl)-5 , 6-benzobicyclo[2.2.2]oct-2-ene]
- Ki (CCKB receptor): 316 nM
- Kb (gastrin receptors): 501 nM

SMILES: COC(=O)[C@H](C)NC(=O)C1C2C=CC(c3ccccc32)C1C(=O)NCC12CC3CC(CC(C3)C1)C2 (stereo partly drawn) [Example 7, exo-cis-7-(1-S-methoxycarbonyl-ethylaminocarbonyl)-8-(1-adamantylmethylaminocarbonyl)-5,6-benzobicyclo[2.2.2]oct-2-ene]
- Ki (CCKB receptor): 251 nM
- Kb (gastrin receptors): 316 nM

SMILES: COC(=O)[C@H](C)NC(=O)C1C2C=CC(c3ccccc32)C1C(=O)NCC12CC3CC(CC(C3)C1)C2 (stereo partly drawn) [Example 8, endo-cis-7-(1--S--methoxycarbonylethylaminocarbonyl)-8-(1-adamantylmethylaminocarbonyl)-5,6-benzobicyclo[2.2.2]oct-2-ene]
- Ki (CCKB receptor): 631 nM
- Kb (gastrin receptors): 501 nM

SMILES: O=C(NCC12CC3CC(CC(C3)C1)C2)C1C2C=CC(c3ccccc32)C1C(=O)N1CCC[C@@H]1C(=O)O (stereo partly drawn) [Example 9, exo-cis-7-(2-R-carboxy-pyrrolidinocarbonyl)-8-(1-adamantylmethylaminocarbonyl)-5,6-benzobicyclo-[2.2.2]oct-2-ene]
- Ki (CCKB receptor): 2510 nM
- Kb (gastrin receptors): 794 nM

SMILES: O=C(NCC12CC3CC(CC(C3)C1)C2)C1C2C=CC(c3ccccc32)C1C(=O)N1CCC[C@@H]1C(=O)O (stereo partly drawn) [Example 10, endo-cis-7-(2-R-carboxy-pyrrolidinocarbonyl)-8-(1-adamantylmethylaminocarbonyl)-5,6-benzobicyclo[2.2.2]oct-2-ene]
- Ki (CCKB receptor): 2000 nM
- Kb (gastrin receptors): 1580 nM

SMILES: COC(=O)[C@H](C)NC(=O)C1C2C(C)=C(C)C(c3ccccc32)C1C(=O)NCC12CC3CC(CC(C3)C1)C2 (stereo partly drawn) [Example 19, exo-cis-7-(1-S-Methoxycarbonyl-ethylaminocarbonyl)-8-(1-adamantylmethylaminocarbonyl)-2,3-dimethyl-5,6-benzobicyclo[2.2.2]oct-2-ene]
- Ki (CCKB receptor): 398 nM
- Kb (gastrin receptors): 1580 nM

SMILES: COC(=O)[C@@H]1CCCN1C(=O)C1C2C=CC(c3ccccc32)C1C(=O)NCC12CC3CC(CC(C3)C1)C2 (stereo partly drawn) [Example 31, exo-cis-7-(2-S-methoxycarbonyl-pyrrolidinocarbonyl)-8-(1-adamantylmethylaminocarbonyl)-5,6-benzo-bicyclo[2.2.2]oct-2-ene]
- Kb (gastrin receptors): 501 nM
